Patent US8541476B2, “Compounds for treatment of malignant tumors” (The Trustees of the University of Pennsylvania, priority 2007, dated 2013)

Legend:
[1] = test system: γ-H2AX, P-CHK2, P-ATM, P-DNA-PKcs in U251 cells; test: Immunoblotting of dsDNA damage-dependent signaling after IR; type: cell-based, human; conditions: U251, 30 μM 4 hours prior to IR, 6 hours after IR
Method: Following treatments, whole cell and nuclear extracts were prepared. Equal lysate volumes were loaded on 15% and 12% SDS-PAGE gels to assay for γ-H2AX and P-CHK2 proteins, respectively. To assay for P-ATM and P-DNA-PKcs protein, 30-50 μg of nuclear protein were diluted with an equal volume of 2×SDS and resolved with 6% SDS-PAGE gels. Proteins were transferred to polyvinylidene difluoride (PVDF) membranes and then incubated with either anti-γ-H2AX antibody (1:5000; Upstate, Charlottesville, Va.), anti-P-CHK2 antibody (1:1000; Cell Signaling, Beverly, Mass.), anti-phospho-ATM (pSer^1981) antibody (1:300 Calbiomchem, San Diego, Calif.), or anti-phospho-DNA-PKcs (T2609) antibody (1:500; Abcam, Cambridge, Mass.). To confirm equivalent loading and protein transfer, membranes were probed with mouse anti-human β-actin monoclonal antibody (Sigma) or anti-DNA-PKcs monoclonal antibody (25-4 at 1:5000; NeoMarkers, Fremont, Calif.). All membranes were then incubated with horseradish peroxidase-conjugated anti-mouse or anti-rabbit secondary antibodies (Santa Cruz Biotechnology). Immunoreactive bands were detected using ECL Plus chemiluminescence (Amersham Biosciences).
The levels of γ-H2AX, P-CHK2, P-ATM, and P-DNA-PKcs were assayed in U251 cells by immunoblotting at various time points after IR. Cells were treated with DMSO (control) or 30 μM NS-123 for 4 hours prior to IR. […]

U251 tumors xenografts = test: U251 xenograft mouse model, tumor growth delay; type: in vivo
Method: U251 cells (5×10^6) were suspended in 0.1 mL of PBS and then injected into the flanks of nu/nu female nude mice. After tumors formed (45±10 mm^3), mice were randomly assigned into one of four groups: DMSO+Sham IR, DMSO+5 Gy IR, NS-123+Sham IR, and NS-123+5 Gy IR. NS-123 was administered as described above. Groups not receiving NS-123 were treated with the same volume of DMSO alone dissolved in 30% propylene glycol. Mouse flanks were irradiated 4 hours following the second injection with 5 Gy (Precision X-Ray, Inc, North Branford, Conn.) given as one fraction or Sham IR. Tumor volumes were measured every other day based on the formula: Volume=length^2×width where length was always the longest dimension.
Data are presented as average relative tumor volume (RTV), where: RTV[Dayx]=Volume[Dayx]/Volume[Day0]
The measurement of tumor regrowth was calculated by the time needed to grow to 10× the treatment volume. As per Seo et al, 2005, (Clin. Cancer Res. 11:7499-507), the in vivo radiosensitizer enhancement ratio was defined as the ratio: TNS-123+IR/TDMSO+IR where T is tumor regrowth delay (days)
To investigate in a more sophisticated model the radiosensitization observed by NS-123 in ZF, a growth delay assay of U251 tumors xenografts in nu/nu nude mice was performed. Mice were treated for 3 consecutive days with either NS-123 or DMSO (i.p.) and received either 5 Gy IR or Sham IR 4 hours after the second injection (see Table at the bottom FIG. 7A). […] Furthermore, they provide additional support for the use of the novel ZF xenograft model as a faster, more economical screening tool for potential in vivo radiosensitizing activity of lead compounds.

U251 glioma cell line = test: Chemical library radiosensitizer screen (MTS assay, paired plates 4 Gy / unirradiated); type: cell-based, human; conditions: U251, 8 hours at 2.5 μM, MTS four days later
Method: Six hundred U251 cells were plated per well in 96 well plates. Cells in each well were then treated with a different compound from the Nanosyn library for 8 hours at 2.5 μM concentration. Treatment was performed with paired 96-well plates; one plate was exposed to 4 Gy and the other plate was an unirradiated control. One hour after irradiation, the medium was replaced with fresh medium alone. Four days later, the MTS assay was used to evaluate cell survival. Absorbance was measured at 490 nm with a microplate reader (Sprectramax, Molecular Devices, Sunnyvale, Calif.). Radiosensitivity factors (RSF) were calculated according to the following formula for each compound tested with the assay:
[formula] Survival Assays
The small chemical compound chemical library (Nanosyn, Inc.) was replicated in a 96-well format and compounds were dissolved in DMSO at a concentration of […]. Using the U251 glioma cell line, the radiosensitizing capability of 870 compounds was initially assayed within the library. The assay was optimized in terms of the number of cells, radiation dose used, and the number of days incubated so that a decrease in survival could be assessed. […] The structure of three novel radiosensitizing compounds is depicted in FIG. 1B.

CCC(=O)c1ccc(Br)c([N+](=O)[O-])c1 [NS-123, 4′-bromo-3′-nitropropiophenone]
levels of γ-H2AX, P-CHK2, P-DNA-PKcs and P-ATM [1]: substantially higher levels | mean time to reach Relative Tumor Volume (RTV)=10 (U251 tumors xenografts; NS-123 50 mg/kg i.p. x3 days + 5 Gy IR): 20 days | mean time to reach Relative Tumor Volume (RTV)=10 (U251 tumors xenografts; NS-123 50 mg/kg i.p. x3 days + Sham IR): 12 days | in vivo radiosensitizer enhancement ratio (U251 tumors xenografts; ratio of tumor regrowth delay NS-123+IR / DMSO+IR): 2.0 | average Radiosensitivity factor (RSF) (U251 glioma cell line): 4.62
